# Assay results from ChEMBL document CHEMBL4418493, “N-hydroxyformamide compounds and compositions comprising them for use as BMP1, TLL1 and/or TLL2 inhibitors” (2018).
# Experiments:
# [1] = Drug metabolism in heparinized pooled human plasma at pH 7.5 assessed as formation of (S)-2-(2-(carboxymethoxy)-4-(5-((((R)-2-((R)-1-(N-hydroxyformamido)propyl)heptanamido)methyl)carbamoyl)furan-2-yl)benzamido)succinic acid at 100 to 2000 ng/ml incubated up to 4 or 24 hrs by LC-MS/MS analysis; assay type: ADME, cell-free; conditions: pH 7.5, 24 h
# [2] = Reduction in PICP levels in human cardiac fibroblasts incubated for 24 to 48 hrs by ELISA; assay type: functional
# [3] = Drug metabolism in heparinized pooled human plasma at pH 7.5 assessed as formation of (3-ethoxy-5-(5-((((R)-2-((R)-1-(N-hydroxyformamido)propyl)heptanamido)methyl)carbamoyl) furan-2-yl)phenyl)phosphonic acid at 100 to 2000 ng/ml incubated up to 4 or 24 hrs by LC-MS/MS analysis; assay type: ADME, cell-free; conditions: pH 7.5, 24 h
Compound,Drug metabolism [1],IC50 [2] [µM],Drug metabolism [3]
CCCCC[C@@H](C(=O)NCNC(=O)c1ccc(-c2ccc(C(=O)N[C@@H](CC(=O)O)C(=O)O)c(OCC(=O)O)c2)o1)[C@@H](CC)N(C=O)OC(=O)c1c(C)cccc1F,Metabolite_Detected,–,–
CCCCC[C@@H](C(=O)NCNC(=O)c1ccc(-c2ccc(C(=O)N[C@@H](CC(=O)O)C(=O)O)c(OCC(=O)O)c2)o1)[C@@H](CC)N(C=O)OC(=O)N(C)C(=O)OC(C)(C)C,Metabolite_Detected,< 3.98,–
CCCCC[C@@H](C(=O)NCNC(=O)c1ccc(-c2cc(OCC)cc(P(=O)(O)O)c2)o1)[C@@H](CC)N(C=O)OC(=O)NC(C)(C)c1ccccc1,–,–,Metabolite_Detected
CCCCC[C@@H](C(=O)NCNC(=O)c1ccc(-c2cc(OCC)cc(P(=O)(O)OCOC(=O)C(C)C)c2)o1)[C@@H](CC)N(O)C=O,–,–,Metabolite_Detected
CCCCC[C@@H](C(=O)NCNC(=O)c1ccc(-c2cc(OCC)cc(P(=O)(O)O)c2)o1)[C@@H](CC)N(C=O)OC(=O)c1ccc2c(c1)OCCN2C,–,< 3.98,Metabolite_Detected
CCCCC[C@@H](C(=O)NCNC(=O)c1ccc(-c2cc(OCC)cc(P(=O)(O)O)c2)o1)[C@@H](CC)N(C=O)OC(=O)c1c(C)cccc1F,–,–,Metabolite_Detected
CCCCC[C@@H](C(=O)NCNC(=O)c1ccc(-c2ccc(C(=O)N[C@@H](CC(=O)O)C(=O)O)c(OCC(=O)O)c2)o1)[C@@H](CC)N(C=O)OC(=O)C(c1ccccc1)c1ccccc1,Metabolite_Detected,< 3.98,–
CCCCC[C@@H](C(=O)NCNC(=O)c1ccc(-c2ccc(C(=O)N[C@@H](CC(=O)O)C(=O)O)c(OCC(=O)O)c2)o1)[C@@H](CC)N(C=O)OC(=O)C1(C)CC1,Metabolite_Detected,< 3.98,–
CCCCC[C@@H](C(=O)NCNC(=O)c1ccc(-c2cc(OCC)cc(P(=O)(O)O)c2)o1)[C@@H](CC)N(C=O)OC(=O)c1ccc(N2CCOCC2)cc1,–,–,Metabolite_Detected
CCCCC[C@@H](C(=O)NCNC(=O)c1ccc(-c2cc(OCC)cc(P(=O)(O)O)c2)o1)[C@@H](CC)N(C=O)OC(=O)C(CC)CC,–,< 3.98,Metabolite_Detected
CCCCC[C@@H](C(=O)NCNC(=O)c1ccc(-c2ccc(C(=O)N[C@@H](CC(=O)O)C(=O)O)c(OCC(=O)O)c2)o1)[C@@H](CC)N(C=O)OC(=O)c1c(C)ccnc1C,Metabolite_Detected,< 3.98,–
CCCCC[C@@H](C(=O)NCNC(=O)c1ccc(-c2ccc(C(=O)N[C@@H](CC(=O)O)C(=O)O)c(OCC(=O)O)c2)o1)[C@@H](CC)N(C=O)OC(=O)C(CCC)CCC,Metabolite_Detected,< 3.98,–
CCCCC[C@@H](C(=O)NCNC(=O)c1ccc(-c2cc(OCC)cc(P(=O)(O)O)c2)o1)[C@@H](CC)N(C=O)OC(=O)c1ccccc1OC(=O)N(C)C,–,–,Metabolite_Detected
CCCCC[C@@H](C(=O)NCNC(=O)c1ccc(-c2cc(OCC)cc(P(=O)(O)O)c2)o1)[C@@H](CC)N(C=O)OC(=O)c1ccccc1O,–,< 3.98,Metabolite_Detected
CCCCC[C@@H](C(=O)NCNC(=O)c1ccc(-c2ccc(C(=O)N[C@@H](CC(=O)O)C(=O)O)c(OCC(=O)O)c2)o1)[C@@H](CC)N(C=O)OC(=O)c1ccc(OC)cc1C(C)C,Metabolite_Detected,< 3.98,–
CCCCC[C@@H](C(=O)NCNC(=O)c1ccc(-c2ccc(C(=O)N[C@@H](CC(=O)O)C(=O)O)c(OCC(=O)O)c2)o1)[C@@H](CC)N(C=O)OC(=O)c1ccc2ccccc2c1,Metabolite_Detected,< 3.98,–
CCCCC[C@@H](C(=O)NCNC(=O)c1ccc(-c2ccc(C(=O)N[C@@H](CC(=O)O)C(=O)O)c(OCC(=O)O)c2)o1)[C@@H](CC)N(C=O)OC(=O)c1ccc(OC)c(OC)c1,Metabolite_Detected,< 3.98,–
CCCCC[C@@H](C(=O)NCNC(=O)c1ccc(-c2ccc(C(=O)N[C@@H](CC(=O)O)C(=O)O)c(OCC(=O)O)c2)o1)[C@@H](CC)N(C=O)OC(=O)c1ccncc1C.N.N.N,Metabolite_Detected,< 3.98,–
CCCCC[C@@H](C(=O)NCNC(=O)c1ccc(-c2ccc(C(=O)N[C@@H](CC(=O)O)C(=O)O)c(OCC(=O)O)c2)o1)[C@@H](CC)N(C=O)OC(=O)Nc1ccccc1,Metabolite_Detected,–,–
CCCCC[C@@H](C(=O)NCNC(=O)c1ccc(-c2cc(OCC)cc(P(=O)(O)O)c2)o1)[C@@H](CC)N(C=O)OC(=O)c1ccc(N2CCCC2=O)cc1.N.N,–,< 3.98,Metabolite_Detected
CCCCC[C@@H](C(=O)NCNC(=O)c1ccc(-c2ccc(C(=O)N[C@@H](CC(=O)O)C(=O)O)c(OCC(=O)O)c2)o1)[C@@H](CC)N(C=O)OC(=O)c1ccc(OC)cc1OC.N.N.N,Metabolite_Detected,< 3.98,–
CCCCC[C@@H](C(=O)NCNC(=O)c1ccc(-c2cc(OCC)cc(P(=O)(O)O)c2)o1)[C@@H](CC)N(C=O)OC(=O)NC(C)(C)C,–,< 3.98,Metabolite_Detected

Compound,Drug metabolism [1],IC50 [2] [µM],Drug metabolism [3]
CCCCC[C@@H](C(=O)NCNC(=O)c1ccc(-c2ccc(C(=O)N[C@@H](CC(=O)O)C(=O)O)c(OCC(=O)O)c2)o1)[C@@H](CC)N(C=O)OC(=O)c1ccccc1C(C)C,Metabolite_Detected,< 3.98,–
CCCCC[C@@H](C(=O)NCNC(=O)c1ccc(-c2ccc(C(=O)N[C@@H](CC(=O)O)C(=O)O)c(OCC(=O)O)c2)o1)[C@@H](CC)N(C=O)OC(=O)NC(C)C,Metabolite_Detected,< 3.98,–
CCCCC[C@@H](C(=O)NCNC(=O)c1ccc(-c2ccc(C(=O)N[C@@H](CC(=O)O)C(=O)O)c(OCC(=O)O)c2)o1)[C@@H](CC)N(C=O)OC(=O)c1c(C)cccc1OC,Metabolite_Detected,< 3.98,–
CCCCCCCCC(=O)ON(C=O)[C@H](CC)[C@@H](CCCCC)C(=O)NCNC(=O)c1ccc(-c2cc(OCC)cc(P(=O)(O)O)c2)o1,–,–,Metabolite_Detected
CCCCC[C@@H](C(=O)NCNC(=O)c1ccc(-c2ccc(C(=O)N[C@@H](CC(=O)O)C(=O)O)c(OCC(=O)O)c2)o1)[C@@H](CC)N(C=O)OC(=O)c1ccccc1N,Metabolite_Detected,< 3.98,–
CCCCC[C@@H](C(=O)NCNC(=O)c1ccc(-c2cc(OCC)cc(P(=O)(O)O)c2)o1)[C@@H](CC)N(C=O)OC(=O)c1ccc(F)cc1C(C)C,–,–,Metabolite_Detected
CCCCC[C@@H](C(=O)NCNC(=O)c1ccc(-c2ccc(C(=O)N[C@@H](CC(=O)O)C(=O)O)c(OCC(=O)O)c2)o1)[C@@H](CC)N(C=O)OC(=O)NC(C)(C)c1ccccc1,Metabolite_Detected,–,–
CCCCC[C@@H](C(=O)NCNC(=O)c1ccc(-c2ccc(C(=O)N[C@@H](CC(=O)O)C(=O)O)c(OCC(=O)O)c2)o1)[C@@H](CC)N(C=O)OC(=O)c1ccc(F)cc1C(C)C,Metabolite_Detected,< 3.98,–
CCCCC[C@@H](C(=O)NCNC(=O)c1ccc(-c2cc(OCC)cc(P(=O)(O)OCc3oc(=O)oc3C)c2)o1)[C@@H](CC)N(O)C=O,–,–,Metabolite_Detected
CCCCC[C@@H](C(=O)NCNC(=O)c1ccc(-c2cc(OCC)cc(P(=O)(O)O)c2)o1)[C@@H](CC)N(C=O)OC(=O)c1ccc(-n2cccc2)cc1.N.N,–,–,Metabolite_Detected
CCCCC[C@@H](C(=O)NCNC(=O)c1ccc(-c2ccc(C(=O)N[C@@H](CC(=O)O)C(=O)O)c(OCC(=O)O)c2)o1)[C@@H](CC)N(C=O)OC(=O)c1ccccc1NC,Metabolite_Detected,< 3.98,–
CCCCC[C@@H](C(=O)NCNC(=O)c1ccc(-c2ccc(C(=O)N[C@@H](CC(=O)O)C(=O)O)c(OCC(=O)O)c2)o1)[C@@H](CC)N(C=O)OC(=O)c1ccccc1OC(=O)N(C)C,Metabolite_Detected,–,–
CCCCC[C@@H](C(=O)NCNC(=O)c1ccc(-c2ccc(C(=O)N[C@@H](CC(=O)O)C(=O)O)c(OCC(=O)O)c2)o1)[C@@H](CC)N(C=O)OC(=O)c1ccc(CN2CCOCC2)cc1,Metabolite_Detected,< 3.98,–
CCCCC[C@@H](C(=O)NCNC(=O)c1ccc(-c2cc(OCC)cc(P(=O)(OCOC(=O)C(C)C)OCOC(=O)C(C)C)c2)o1)[C@@H](CC)N(O)C=O,–,–,Metabolite_Detected
CCCCC[C@@H](C(=O)NCNC(=O)c1ccc(-c2ccc(C(=O)N[C@@H](CC(=O)O)C(=O)O)c(OCC(=O)O)c2)o1)[C@@H](CC)N(C=O)OP(=O)(N[C@@H](C)C(=O)OC)Oc1ccccc1.N.N.N (stereo not given in full),Metabolite_Detected,–,–
CCCCC[C@@H](C(=O)NCNC(=O)c1ccc(-c2ccc(C(=O)N[C@@H](CC(=O)O)C(=O)O)c(OCC(=O)O)c2)o1)[C@@H](CC)N(C=O)OC(=O)c1ccc(CN2CCOCC2)cc1C,Metabolite_Detected,< 3.98,–
CCCCC[C@@H](C(=O)NCNC(=O)c1ccc(-c2ccc(C(=O)N[C@@H](CC(=O)O)C(=O)O)c(OCC(=O)O)c2)o1)[C@@H](CC)N(C=O)OC(=O)NC(C)(C)C,Metabolite_Detected,< 3.98,–
CCCCC[C@@H](C(=O)NCNC(=O)c1ccc(-c2cc(OCC)cc(P(=O)(O)O)c2)o1)[C@@H](CC)N(C=O)OC(=O)c1cccc(N2CCCC2)c1.N.N,–,–,Metabolite_Detected
CCCCC[C@@H](C(=O)NCNC(=O)c1ccc(-c2ccc(C(=O)N[C@@H](CC(=O)O)C(=O)O)c(OCC(=O)O)c2)o1)[C@@H](CC)N(C=O)OC(=O)c1cccc2ccccc12,Metabolite_Detected,< 3.98,–
CCCCC[C@@H](C(=O)NCNC(=O)c1ccc(-c2ccc(C(=O)N[C@@H](CC(=O)O)C(=O)O)c(OCC(=O)O)c2)o1)[C@@H](CC)N(C=O)OC(=O)c1c(C)noc1C,Metabolite_Detected,< 3.98,–
CCCCC[C@@H](C(=O)NCNC(=O)c1ccc(-c2cc(OCC)cc(P(=O)(O)O)c2)o1)[C@@H](CC)N(C=O)OC(=O)c1ccc(N2CCCC2)cc1.N.N,–,< 3.98,Metabolite_Detected
